The values that follow come from patent US10710986B2, “PD-1/PD-L1 inhibitors” (Gilead Sciences, Inc., priority 2018, dated 2020).

pIC50: −log10 of the molar value.

For the experiment, the target named is PD-1/PD-L1 (Homo sapiens (Human), UniProt Q9NZQ7). Kind of experiment: PD-1/PD-L1 biochemical protein-protein interaction assay (ALPHA). The note with it: 0.3 nM His tagged PD-L1, 2.5 nM biotinylated Fc-PD-1, 60 minutes at 25° C., read-out: IC50 PD-L1-PD1.
Sequence of PD-1/PD-L1 (Q9NZQ7 19-238): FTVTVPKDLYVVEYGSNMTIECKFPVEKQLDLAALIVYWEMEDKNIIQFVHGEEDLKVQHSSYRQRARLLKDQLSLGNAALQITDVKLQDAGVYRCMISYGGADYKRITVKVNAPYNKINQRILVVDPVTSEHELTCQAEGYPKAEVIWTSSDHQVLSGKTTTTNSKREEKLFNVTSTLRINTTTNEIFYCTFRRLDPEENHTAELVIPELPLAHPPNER
The pIC50 is −log10 of the IC50, conventionally taken in molar units. For `COc1nc(-c2cccc(-c3cccc(-c4cnc(CNC[C@H]5C[C@](C)(O)C5)c(OC)n4)c3Cl)c2Cl)cnc1CNC[C@H]1C[C@](C)(O)C1` [compound 563], the pIC50 was 9.37.

`COc1nc(-c2cccc(-c3cccc(-c4cnc(CN[C@H]5C[C@](C)(O)C5)c(OC)n4)c3Cl)c2Cl)cnc1CNC[C@@H]1CCC(=O)N1` [compound 564]: the pIC50 was 9.70.

Consider `COc1nc(-c2cccc(-c3cccc(-c4cnc(CNC[C@H]5C[C@H](OC)C5)c(OC)n4)c3Cl)c2Cl)cnc1CNC[C@@H]1CCC(=O)N1` [compound 565], for which the pIC50 was 9.37.

Turning to `COc1nc(-c2cccc(-c3cccc(-c4cnc(CNC[C@H]5C[C@@](C)(O)C5)c(OC)n4)c3Cl)c2Cl)cnc1CNC[C@@H]1CCC(=O)N1` [compound 566], the pIC50 was 9.89.

As to `COc1nc(-c2cccc(-c3cccc(-c4cnc(CNC[C@H]5C[C@](C)(O)C5)c(OC)n4)c3Cl)c2Cl)cnc1CNC[C@@H]1CCC(=O)N1` [compound 567], the pIC50 is 10.19.

As to `COc1nc(-c2cccc(-c3cccc(-c4cnc(CNC[C@H]5CCS(=O)(=O)N5)c(OC)n4)c3Cl)c2Cl)cnc1CNC[C@H]1CCS(=O)(=O)N1` [compound 568], the pIC50 was 9.53.

With `COc1nc(-c2cccc(-c3cccc(-c4cnc(CNC[C@@H]5CCS(=O)(=O)N5)c(OC)n4)c3Cl)c2Cl)cnc1CNC[C@@H]1CCS(=O)(=O)N1` [compound 569], the pIC50 was 9.23.

Consider `COc1nc(-c2cccc(-c3cccc(-c4cnc(CNCCCN5CCCS5(=O)=O)c(OC)n4)c3Cl)c2Cl)cnc1CNCCCN1CCCS1(=O)=O` [compound 570], for which the negative-log IC50 (pIC50) is 9.38.

In the case of `COc1nc(-c2cccc(-c3cccc(-c4cnc(CN5CC(NS(N)(=O)=O)C5)c(OC)n4)c3Cl)c2Cl)cnc1CN1CC(NS(N)(=O)=O)C1` [compound 571], the pIC50 is 10.19.

Turning to `CNS(=O)(=O)CCNCc1ncc(-c2cccc(-c3cccc(-c4cnc(CNC[C@@H]5CCC(=O)N5)c(OC)n4)c3Cl)c2Cl)nc1OC` [compound 572], the negative logarithm of the IC50 (pIC50) was 10.19.

For the compound `COc1nc(-c2cccc(-c3cccc(-c4cnc(CNC[C@@H]5CCC(=O)N5)c(OC)n4)c3Cl)c2Cl)cnc1CNCCN1CCCS1(=O)=O` [compound 573], the negative-log IC50 (pIC50) was 10.05.

For the compound `COc1nc(-c2cccc(-c3cccc(-c4cnc(CN5CC(S(C)(=O)=O)C5)c(OC)n4)c3Cl)c2Cl)cnc1CNC[C@@H]1CCC(=O)N1` [compound 574], the pIC50 is 9.88.

`COc1nc(-c2cccc(-c3cccc(-c4cnc(CNCCNS(C)(=O)=O)c(OC)n4)c3Cl)c2Cl)cnc1CNCCNS(C)(=O)=O` [compound 575]: the negative-log IC50 (pIC50) was 10.19.

Consider `COc1nc(-c2cccc(-c3cccc(-c4cnc(CNCC5CCS(=O)(=O)N5)c(OC)n4)c3Cl)c2Cl)cnc1CNCC1CCS(=O)(=O)N1` (stereo not drawn) [compound 576], for which the negative-log IC50 (pIC50) is 9.19.

For the compound `COc1nc(-c2cccc(-c3cccc(-c4cnc(CNC[C@@H]5CCC(=O)N5)c(OC)n4)c3Cl)c2Cl)cnc1CNCCCS(N)(=O)=O` [compound 577], the pIC50 was 10.19.

Consider `CCNC(=O)CNCc1ncc(-c2cccc(-c3cccc(-c4cnc(CNC[C@@H]5CCC(=O)N5)c(OC)n4)c3Cl)c2Cl)nc1OC` [compound 578], for which the pIC50 was 9.74.

As to `COc1nc(-c2cccc(-c3cccc(-c4cnc(CNC[C@H]5CCOC5)c(OC)n4)c3Cl)c2Cl)cnc1CNC[C@H]1CCOC1` [compound 579], the negative logarithm of the IC50 (pIC50) is 9.11.

In the case of `COc1nc(-c2cccc(-c3cccc(-c4cnc(CN(C)C[C@@H]5CCC(=O)N5)c(OC)n4)c3Cl)c2Cl)cnc1CNC[C@@H]1CCC(=O)N1` [compound 580], the pIC50 is 9.44.

For the compound `COc1nc(-c2cccc(-c3cccc(-c4cnc(CNC[C@@H]5CCC(=O)N5)c(OC)n4)c3Cl)c2Cl)cnc1CNCC(=O)NC(C)C` [compound 581], the pIC50 was 9.70.

Turning to `COc1nc(-c2cccc(-c3cccc(-c4cnc(C5=NCCN5)c(OC)n4)c3Cl)c2Cl)ccc1CN` [compound 582], the negative logarithm of the IC50 (pIC50) is 9.72.

On to `COc1nc(-c2cccc(-c3cccc(-c4cnc(CN)c(OC)n4)c3Cl)c2Cl)ccc1C1=NCCN1` [compound 583], for which the negative-log IC50 (pIC50) was 10.19.

For `COc1nc(-c2cccc(-c3cccc(-c4cnc(C5=NCCN5)c(OC)n4)c3Cl)c2Cl)cnc1CN` [compound 584], the negative-log IC50 (pIC50) is 9.93.

Consider `COc1nc(-c2cccc(-c3cccc(-c4cnc(CN5CC[C@H](C(=O)O)C5)c(OC)n4)c3Cl)c2Cl)cnc1CN` [compound 585], for which the negative logarithm of the IC50 (pIC50) is 9.35.

In the case of `COc1nc(-c2cccc(-c3cccc(-c4cnc(CN5CC[C@H](O)C5)c(OC)n4)c3Cl)c2Cl)cnc1CN` [compound 586], the pIC50 is 9.54.

Take `COc1nc(-c2cccc(-c3cccc(-c4cnc(CN5CC[C@@H](O)C5)c(OC)n4)c3Cl)c2Cl)cnc1CN` [compound 587]: the pIC50 is 9.29.

Turning to `COc1nc(-c2cccc(-c3cccc(-c4cnc(CNCC5(O)COC5)c(OC)n4)c3Cl)c2Cl)cnc1CNCC1(O)COC1` [compound 588], the negative-log IC50 (pIC50) is 9.77.

For `COc1nc(-c2cccc(-c3cccc(-c4cnc(CNCC5(O)COC5)c(OC)n4)c3Cl)c2Cl)cnc1CNC[C@@H]1CCC(=O)N1` [compound 589], the pIC50 is 9.54.

As for `COc1nc(-c2cccc(-c3cccc(-c4cnc(CN[C@H](C5CC5)[C@@H]5CCC(=O)N5)c(OC)n4)c3Cl)c2Cl)cnc1CN[C@H](C1CC1)[C@@H]1CCC(=O)N1` [compound 590], the pIC50 is 9.88.

For the compound `COc1nc(-c2cccc(-c3cccc(-c4cnc(CN5CC6(CNC(=O)C6)C5)c(OC)n4)c3Cl)c2Cl)cnc1CN` [compound 591], the pIC50 is 9.86.

On to `COc1nc(-c2cccc(-c3cccc(-c4cnc(CNC5CC(C)(O)C5)c(OC)n4)c3Cl)c2Cl)cnc1CN` (stereo not drawn) [compound 592], for which the pIC50 is 9.82.

For the compound `COc1nc(-c2cccc(-c3cccc(-c4cnc(CN5CC(O)C5)c(OC)n4)c3Cl)c2Cl)cnc1CN` [compound 594], the pIC50 is 9.92.

Regarding `COc1nc(-c2cccc(-c3cccc(-c4cnc(CN5CC6(CCC(=O)N6)C5)c(OC)n4)c3Cl)c2Cl)cnc1CN` [compound 595], the negative logarithm of the IC50 (pIC50) is 10.19.

For `COc1nc(-c2cccc(-c3cccc(-c4cnc(CN5CC(C)(O)C5)c(OC)n4)c3Cl)c2Cl)cnc1CN` [compound 596], the pIC50 was 9.74.

As for `COc1nc(-c2cccc(-c3cccc(-c4cnc(CN5CC6(C5)CN(C(C)=O)C6)c(OC)n4)c3Cl)c2Cl)cnc1CN` [compound 597], the negative logarithm of the IC50 (pIC50) was 9.89.

As for `COc1nc(-c2cccc(-c3cccc(-c4cnc(CN[C@@H](C)[C@H]5CCC(=O)N5)c(OC)n4)c3Cl)c2Cl)cnc1CNC[C@@H]1CCC(=O)N1` [compound 598], the pIC50 is 9.75.

In the case of `COc1nc(-c2cccc(-c3cccc(-c4cnc(CN[C@H](C)[C@@H]5CCC(=O)N5)c(OC)n4)c3Cl)c2Cl)cnc1CNC[C@@H]1CCC(=O)N1` [compound 599], the pIC50 is 9.76.

For `COc1nc(-c2cccc(-c3cccc(-c4cnc(CN[C@H]5C[C@@](O)(CO)C5)c(OC)n4)c3Cl)c2Cl)cnc1CNC[C@@H]1CCC(=O)N1` [compound 600], the pIC50 was 10.19.

Turning to `COc1nc(-c2cccc(-c3cccc(-c4cnc(CN[C@H](C)[C@@H]5CCC(=O)N5)c(OC)n4)c3Cl)c2Cl)cnc1CN[C@H](C)[C@@H]1CCC(=O)N1` [compound 601], the pIC50 is 9.71.

With `COc1nc(-c2cccc(-c3cccc(-c4cnc5c(CN6CCC7(CCC(=O)N7)C6)cn(C)c5n4)c3Cl)c2Cl)cnc1CNC[C@H]1CCC(=O)N1` (stereo partly drawn) [compound 602], the pIC50 is 9.84.
